Experimental data: US5705499A, “8-arylalkyl- and 8-arylheteroalkyl-5,11-dihydro-6H-dipyrido[3,2-B:2',3'-e][1]diazepines and their use in the treatment of HIV-1 infection” (Boehringer Ingelheim Pharmaceuticals, Inc., priority 1996, dated 1998)
Like-named read-outs stand apart in the source and are kept apart here.

Tests used:
[1] = test system: HTLV-IIIB strain of HIV-1 (in C8166-45 cells); test: Syncytia (human T-cell culture) Assay; assay type: cell-based
Procedure: Formation of syncytia is a feature of in vitro cultures of CD4+ T-cells infected with HIV-1. In this assay (1), T-cells are treated with a putative replication inhibiting compound and then infected with HIV-1. After incubation, the culture is checked for the formation of syncytia. The absence or reduction in the number of syncytia is used as a measure of the test compound's ability to inhibit HIV replication.
The target cells, designated C8166-45, are a fusion of umbilical blood lymphocytes and T-cells from leukemia-lymphoma patients and are established at an initial density of 5×10^4 per 90 μl in RPMI 1640 (+10% fetal bovine serum) culture medium in 96 well flat bottom plates. A selected amount of test compound, dissolved in DMSO, is included. 50 TCID50 's (the dose that results in induced effect in 50% of test cultures) of the HTLV-IIIB strain of HIV-1 (3) are inoculated into each culture. Control cultures receive compound or virus only.
The cultures are incubated for 72 hours (4), at 37° C. with 5% carbon dioxide, and then visually examined for the frequency and distribution of virus-induced giant cell syncytia. The percent inhibition by the test compound is determined by comparison with control values.

C8166-45 cell line = test: MTT Assay (cytotoxicity); assay type: cell-based, human; settings: C8166-45 cells, five days
[2] = Human immunodeficiency virus 1, T-cell, C8166-45 cells, HTLV-IIIB strain, 72 hours, read-out: Syncytia Assay IC50

SMILES | IC50 [1, 2] | MTT Assay CC30 (C8166-45 cell line) | IC50 ([1]; Human immunodeficiency virus 1, IIIB, T-cell, 72 h, read-out: Syncytia Assay IC50 (μM))
CCN1c2ncc(CCc3ccccc3)cc2C(=O)N(C)c2cccnc21 [Example 42, 5,11-Dihydro-11-ethyl-5methyl-8-(2-phenylethyl)-6H-dipyrido[3,2-b:2',3'-e][1,4]diazepin-6-one] | 0.03 µM | – | –
CCN1c2ncc(CCc3ccccc3)cc2C(=O)N(C)c2ccc(Cl)nc21 [Example 45, 2Chloro-5,11-dihydro-11-ethyl-5-methyl-8-(2-phenylethyl)-6H-dipyrido[3,2-b:2',3'-e][1,4]diazepin-6-one] | 0.01 µM | > 60 µM | –
CCN1c2ncc(CCOc3cc[n+]([O-])cc3)cc2C(=O)N(C)c2ccc(Cl)nc21 [Example 96, 2-chloro-5,11-dihydro-11-ethyl-5-methyl-8-[2-(N-oxo-pyrid-4-yloxy)ethyl]-6H-dipyrido[3,2-b:2',3'-e[]1,4]diazepin-6-one] | 0.03 µM | > 256 µM | –
CCN1c2ncc(COc3cccc(N)c3)cc2C(=O)N(C)c2ccc(Cl)nc21 [Example 99, 8-(3-aminophenyloxy)methyl-2-chloro-5,11-dihydro-11-ethyl-5-methyl-6H-dipyrido[3,2-b:2',3'-e][1,4]diazepin-6-one] | – | – | 0.02 µM
CCN1c2ncc(COc3ccccc3)cc2C(=O)N(C)c2ccc(Cl)nc21 [Example 100, 2-chloro-5,11-dihydro-11-ethyl-5-methyl-8-(phenyloxy)methyl-6H-dipyrido[3,2-b:2',3'-e][1,4]diazepin-6-one] | 0.05 µM | > 60 µM | –
CCN1c2ncc(COc3ccc(O)cc3)cc2C(=O)N(C)c2ccc(Cl)nc21 [Example 105, 2-chloro-5,11-dihydro-11-ethyl-8-(4-hydroxyphenyloxy)methyl-5-methyl-6H-dipyrido[3,2-b:2',3'-e][1,4]diazepin-6-one] | – | 40 µM | –
CCN1c2ncc(COc3ccccc3O)cc2C(=O)N(C)c2ccc(Cl)nc21 [Example 106, 2-chloro-5,11-dihydro-11-ethyl-8-(2-hydroxyphenyloxy)methyl-5-methyl-6H-dipyrido[3,2-b:2',3'-e][1,4]diazepin-6-one] | – | > 60 µM | –
CCN1c2ncc(COc3cccnc3)cc2C(=O)N(C)c2ccc(Cl)nc21 [Example 107, 2-chloro-5,11-dihydro-11-ethyl-5-methyl-8-(3-pyridyloxy)methyl-6H-dipyrido[3,2-b:2',3'-e][1,4]diazepin-6-one] | – | > 256 µM | –
CCN1c2ncc(COc3cccc(OC)c3)cc2C(=O)N(C)c2ccc(Cl)nc21 [Example 108, 2-chloro-5,11-dihydro-11-ethyl-8-(3-methoxyphenyloxy)methyl-5-methyl-6H-dipyrido[3,2-b:2',3'-e][1,4]diazepin-6-one] | – | > 120 µM | –
CCN1c2ncc(COc3ccc(C(=O)OC)cc3)cc2C(=O)N(C)c2ccc(Cl)nc21 [Example 109, 2-chloro-5,11-dihydro-11-ethyl-8-(4-(methoxycarbonyl)phenyloxy)methyl-5-methyl-6H-dipyrido[3,2-b :2',3'-e][1,4]diazepin-6-one] | – | > 60 µM | –
CCN1c2ncc(COc3ccccc3C(=O)OC)cc2C(=O)N(C)c2ccc(Cl)nc21 [Example 110, 2-chloro-5,11-dihydro-11-ethyl-8-(2-(methyoxycarbonyl)phenyloxy)methyl-5-methyl-6H-dipyrido[3,2-b:2',3'-e][1,4]diazepin-6-one] | – | > 250 µM | –
CCN1c2ncc(COc3cccc(C(=O)OC)c3)cc2C(=O)N(C)c2ccc(Cl)nc21 [Example 111] | – | > 60 µM | –
CCN1c2ncc(COc3cccc(C(=O)O)c3)cc2C(=O)N(C)c2ccc(Cl)nc21 [Example 112, 2-chloro-5,11-dihydro-11-ethyl-8-(3-(carboxy)phenyloxy)methyl-5-methyl-6H-dipyrido[3,2-b:2',3'-e][1,4]diazepin-6-one] | – | 250 µM | –
CCN1c2ncc(COc3cccc(C(N)=O)c3)cc2C(=O)N(C)c2ccc(Cl)nc21 [Example 113, 8-(3-(aminocarbonyl)phenyloxy)methyl-2-chloro-5,11-dihydro-11-ethyl-5-methyl-6H-dipyrido[3,2-b:2',3'-e][1,4]diazepin-6-one] | – | 130 µM | –
CCN1c2ncc(COc3cccc4[nH]ccc34)cc2C(=O)N(C)c2ccc(Cl)nc21 [Example 114, 2-chloro-5,11-dihydro-11-ethyl-8-(4-indolyloxy)methyl-5-methyl-6H-dipyrido[3,2-b:2',3'-e][1,4]diazepin-6-one] | – | 30 µM | –
CCN1c2ncc(CN(C)c3ccccc3)cc2C(=O)N(C)c2ccc(Cl)nc21 [Example 116, 2-chloro-5,11-dihydro-11-ethyl-5-methyl-8-(N-methylphenylamino)methyl-6H-dipyrido[3,2-b:2',3'-e][1,4]diazepin-6-one] | – | > 60 µM | –
CCN1c2ncc(CSc3ccccc3)cc2C(=O)N(C)c2ccc(Cl)nc21 [Example 117, 2-chloro-5,11-dihydro-11-ethyl-5-methyl-8-(phenylthio)methyl-6H-dipyrido[3,2-b:2',3'-e][1,4]diazepin-6-one] | 0.005 µM | 60 µM | –
CCN1c2ncc(CS(=O)(=O)c3ccccc3)cc2C(=O)N(C)c2ccc(Cl)nc21 [Example 118, 2-chloro-5,11-dihydro-11-ethyl-5-methyl-8-(phenylsulfonyl)methyl-6H-dipyrido[3,2-b:2',3'e][1,4]diazepin-6-one] | – | 45 µM | –
CCN1c2ncc(CSc3ncccn3)cc2C(=O)N(C)c2ccc(Cl)nc21 [Example 121, 2-chloro-5,11-dihydro-11-ethyl-5-methyl-8-(pyrimidinyl-2-thio)methyl-6H-dipyrido[3,2-b:2',3'-e][1,4]diazepin-6-one] | – | 50 µM | –
CCN1c2ncc(CSc3[nH]cnc4nncc3-4)cc2C(=O)N(C)c2ccc(Cl)nc21 [Example 122, 2-chloro-5,11-dihydro-11-ethyl-5-methyl-8-(1H-pyrazolo[3,4-d]pyrimidine-4-ylthio)methyl-6H-dipyrido[3,2-b:2',3'-e][1,4]diazepin-6-one] | – | 25 µM | –
CCN1c2ncc(COc3ccncc3)cc2C(=O)N(C)c2ccc(Cl)nc21 [Example 124, 2-Chloro-5,11-dihydro-11-ethyl-5-methyl-8-(pyrid-4-yloxy)methyl-6H-dipyrido[3,2-b:2',3'-e][1,4]diazepin-6-one] | 0.006 µM | > 120 µM | –
CCN1c2ncc(COc3ccncc3)cc2C(=O)N(C)c2ccc(F)nc21 [Example 125, 5,11-dihydro-11-ethyl-2-fluoro-5-methyl-8-(pyrid-4-yloxy)methyl-6H-dipyrido[3,2-b:2',3'-e][1,4]diazepin-6-one] | – | 160 µM | –
CCN1c2ncc(COc3ccnc(C(F)(F)F)c3)cc2C(=O)N(C)c2ccc(Cl)nc21 [Example 126, 2-chloro-5,11-dihydro-11-ethyl-5-methyl-8-(2-trifluoromethylpyrid-4-yloxy)methyl-6H-dipyrido[3,2-b;2',3'-e][1,4]diazepin-6-one] | – | 64 µM | –
CCN1c2ncc(CCOc3ccncc3)cc2C(=O)N(C)c2cccnc21 [Example 128, 5,11-dihydro-11-ethyl-5-methyl-8-(pyrid-4-yloxy)ethyl-6H-dipyrido[3,2-b:2',3'-e][1,4]diazepin-6-one] | – | > 256 µM | –
